According to patent US11944662B2, “Methods and compositions for preventing or treating ophthalmic conditions” (Stealth BioTherapeutics Inc., priority 2009, dated 2024):
Read-outs that look alike come from different tables or passages of the source. Where a SMILES comes first, the peptide text is derived from it. Where no end group is shown, it is not given here. [ ]: non-standard residue; d: D form. Dmt = Cc1cc(O)cc(C)c1C[C@H](N)C(=O)O

Tests used:
[1] = tested on: primary human retinal pigment epithelial (RPE) cells; details: different concentrations, 24 h
Procedure: Primary cultured human RPE cells were incubated with different concentrations of SS-31 alone for a period of 24 h, and cell viability was determined by a MTT assay (FIG. 22).

[2] = tested on: GTM cells; details: n=4
Excerpt: (§4) The effects of SS-31 at mitigating acute oxidative injury in GTM and HTM cells was investigated.

[3] = tested on: GTM cells; details: n=3
Excerpt: (§1) FIG. 37 is a graph showing the fluorescence intensity of ROS of GTM and HTM cells in control and SS-31-treated groups, as measured using FACS analysis.

[4] = tested on: HTM cells; details: n=4
Excerpt: as §1

[5] = tested on: HTM cells; details: n=4; remark: listed apart in the source
Excerpt: as §4

[6] = tested on: trabecular meshwork cells from non-diseased individuals (HTM)
Procedure: (§2) To assess whether SS-31 had cytotoxic effects of HTM or GTM cells, various concentrations of SS-31 were administered to cells and the cytotoxicity was measured using an LDH assay. A LDH cytotoxicity assay is a colorimetric method of assaying cellular cytotoxicity. The assay quantitatively measures the stable, cytosolic, lactate dehydrogenase (LDH) enzyme, which is released from damaged cells. The released LDH is measured with a coupled enzymatic reaction that results in the conversion of a tetrazolium salt (iodonitrotetrazolium (INT)) into a red color formazan by diaphorase. […] See generally, Haslam, G. et al. (2005) Anal. Biochem. 336: 187; Tarnawski, A. (2005) Biochem. Biophys. Res. Comm. 333: 207; Round, J. L et al. (2005) J. Exp. Med. 201: 419; Bose, C. et al. (2005) Am. J. Physiol. Gastr. L. 289: G926; Chen, A. and Xu, J. (2005) Am. J. Physiol. Gastr. L. 288: G447. The LDH activity is determined as NADH oxidation or INT reduction over a defined time period.

[7] = tested on: trabecular meshwork cells from glaucoma patients (GTM)
Procedure: as §2

[8] = tested on: HRECs; assay: Survival of HRECs in high glucose, Annexin V/PI flow cytometry; assay type: cell-based, human; details: 24 hours after treatment
Procedure: FIGS. 1A and 1B show the effects of different concentrations of SS-31 (10 nM, 100 nM, 1 μM and 10 μM) used as co-treatment with 30 mM glucose (HG). […] FIG. 1B is a graphic representation of the survival ratio for HRECs.
See generally, Li B, Tang S B, Zhang G, Chen J H, Li B J. Culture and characterization of human retinal capillary endothelial cell. Chin Ophthal Res 2005; 23: 20-2; Premanand C, Rema M, Sameer M Z, Sujatha M, Balasubramanyam M. Effect of curcumin on proliferation of human retinal endothelial cells under in vitro conditions. Invest Ophthalmol Vis Sci 2006; 47: 2179-84.
Briefly, HREC cells were divided into three groups: a normal control group; a group administered 30 mM glucose; and a group administered 30 mM glucose+SS-31. Survival of HRECs in high glucose co-treated with different concentrations of SS-31 (10 nM, 100 nM, 1 μM, 10 μM) was measured using an Annexin V+PI assay and flow cytometry. See generally, Koopman, G., Reutelingsperger, C. P., Kuijten, G. A. M., Keehnen, R. M. J., Pals, S. T., and van Oers, M. H. J. 1994. Annexin V for flow cytometric detection of phosphatidylserine expression on B cells undergoing apoptosis. Blood 84: 1415; Homburg, C. H., de Haas, M., von dem Borne, A. E., Verhoeven, A. J., Reutelingsperger, C. P., and Roos, D. 1995. Human neutrophils lose their surface Fc gamma Rill and acquire Annexin V binding sites during apoptosis in vitro. Blood 85: 532; Vermes, I., Haanen, C., Steffens-Nakken, H., and Reutelingsperger, C. 1995. A novel assay for apoptosis-flow cytometric detection of phosphatidylserine expression on early apoptotic cells using fluorescein labelled Annexin V. J. Immunol. Meth. 184: 39; Fadok, V. A., Voelker, D. R., Campbell, P. A., Cohen, J. J., Bratton, D. L., and Henson, P. M. 1992. Exposure of phosphatidylserine on the surface of apoptotic lymphocytes triggers specific recognition and removal by macrophages. J. Immunol. 148: 2207.
The survival of HRECs in high glucose co-treated with SS-31 was tested at 24 h and 48 h.

[9] = tested on: inner blood-retinal barrier; assay: Inner blood-retinal barrier function, Evans blue extravasation, diabetic rats; assay type: in vivo, Sprague-Dawley rat; details: compared to rats on a HFD not administered SS-20 or SS-31
Excerpt: FIGS. 10A-10B is a series of charts showing the integrity of the blood-retinal barrier of normal rats (NRC), diabetic rats, and diabetic rats treated with SS-20 or SS-31, as analyzed by Evans blue extravasation. (10A) diabetes induced by STZ; (10B) diabetes induced by HFD/STZ.
The effect of the aromatic-cationic peptides on the inner blood-retinal barrier function in the SD rat model was investigated.

[10] = tested on: lenses of diabetic rats; assay: Cataract formation in lenses, STZ diabetic rat model; assay type: in vivo, Sprague-Dawley rat; details: 10 mg (Table 9: 10 mg/kg s.c.)
Procedure: (§3) A rat model of diabetes was established by combination of 6-week HFD and low dose of STZ (30 mg/kg) injection or a single high dose of STZ (65 mg/kg) in SD rats. See generally, K. Srinivasan, B. Viswanad, Lydia Asrat, C. L. Kaul and P. Ramarao, Combination of high-fat diet-fed and low-dose streptozotocin-treated rat: A model for type 2 diabetes and pharmacological screening, Pharmacological Research, 52(4): 313-320, 2005. Rats of the same batch fed with normal chow (NRC) were used as a control.

[11] = tested on: lenses of diabetic rats; assay: Cataract formation in lenses, HFD/STZ diabetic rat model; assay type: in vivo, Sprague-Dawley rat; details: for Percentage of opacity (%) / Percentage of severe opacity (%) / Turbidity degree ++++ (count) / Turbidity degree +++ (count) / Turbidity degree ++ (count) / Turbidity degree + (count) / Turbidity degree − (count): HFD/STZ rat model; for Turbidity degree ++++ (count): ++++: severely opaque; for Turbidity degree +++ (count): +++: moderately opaque; for Turbidity degree ++ (count): ++: opaque; for Turbidity degree + (count): +: mildly opaque; for Turbidity degree − (count): −: transparent
Procedure: The example describes the results of such experiments.
as §3

Cc1cc(O)cc(C)c1C[C@H](NC(=O)[C@H](N)CCCNC(=N)N)C(=O)N[C@@H](CCCCN)C(=O)N[C@@H](Cc1ccccc1)C(N)=O [SS-31, D-Arg-2′,6′-Dmt-Lys-Phe-NH2] (H-[dR][Dmt]KF-NH2)
cell viability (MTT assay), SS-31 alone [1]: did not adversely effect | percentage of fluorescence intensity of TMRM compared to GTM control ([2]; H2O2 + SS-31 10^−6 M): 56.2±4.04% | percentage of fluorescence intensity of TMRM compared to GTM control ([2]; H2O2 + SS-31 10^−7 M): 50.3±4.46% | percentage of fluorescence intensity of TMRM compared to GTM control ([2]; H2O2 + SS-31 10^−8 M): 47.5±2.82% | percentage of intracellular ROS production compared to GTM control ([3]; H2O2 + SS-31 10^−6 M): 84.5±8.75% | percentage of intracellular ROS production compared to GTM control ([3]; H2O2 + SS-31 10^−7 M): 102.0±5.69% | percentage of intracellular ROS production compared to GTM control ([3]; H2O2 + SS-31 10^−8 M): 133.0±5.17% | percentage of intracellular ROS production, HTM groups ([4]; H2O2 + SS-31 10^−6 M): 79±2.39% | percentage of intracellular ROS production, HTM groups ([4]; H2O2 + SS-31 10^−7 M): 91.8±3.49% | percentage of intracellular ROS production, HTM groups ([4]; H2O2 + SS-31 10^−8 M): 129.0±8.24% | percentage of fluorescence intensity of TMRM, HTM groups ([5]; H2O2 + SS-31 10^−6 M): 57.7±1.80% | percentage of fluorescence intensity of TMRM, HTM groups ([5]; H2O2 + SS-31 10^−7 M): 50.6±3.06% | percentage of fluorescence intensity of TMRM, HTM groups ([5]; H2O2 + SS-31 10^−8 M): 49.4±2.27% | cytotoxicity ([6]; at 10^−3 M): no cytotoxicity | viability (LDH cytotoxicity assay) ([6]; various concentrations): does not affect the viability | cytotoxicity ([7]; at 10^−3 M): no cytotoxicity | viability (LDH cytotoxicity assay) ([7]; various concentrations): does not affect the viability | survival ratios for HRECs (Q3) ([8]; 30 mM glucose + SS-31 10 nM): 84.3% | survival ratios for HRECs (Q3) ([8]; 30 mM glucose + SS-31 100 nM): 90.7% | survival ratios for HRECs (Q3) ([8]; 30 mM glucose + SS-31 1 μM): 92.8% | survival ratios for HRECs (Q3) ([8]; 30 mM glucose + SS-31 10 μM): 94.3%

F[dR]FK-NH2 [SS-20]
inner blood-retinal barrier function [9]: improved | Percentage of opacity (%) [10]: 60.0% | Percentage of severe opacity (%) [10]: 20.0% | Opacity degree ++++ (count) ([10]; ++++: severely opaque): 1 | Opacity degree +++ (count) ([10]; +++: moderately opaque): 0 | Opacity degree ++ (count) ([10]; ++: opaque): 2 | Opacity degree + (count) ([10]; +: mildly opaque): 0 | Opacity degree − (count) ([10]; −: transparent): 2 | cataract formation in the lenses of diabetic rats ([11]; HFD/STZ and STZ models (FIGS. 6 and 7, Tables 11 and 12)): prevention or reversal of cataract formation | Percentage of opacity (%) ([11]; 3 mg (Table 7: 3 mg/kg s.c.)): 75.0% | Percentage of severe opacity (%) ([11]; 3 mg (Table 7: 3 mg/kg s.c.)): 25.0% | Turbidity degree ++++ (count) ([11]; 3 mg (Table 7: 3 mg/kg s.c.)): 1 | Turbidity degree +++ (count) ([11]; 3 mg (Table 7: 3 mg/kg s.c.)): 0 | Turbidity degree ++ (count) ([11]; 3 mg (Table 7: 3 mg/kg s.c.)): 1 | Turbidity degree + (count) ([11]; 3 mg (Table 7: 3 mg/kg s.c.)): 1 | Turbidity degree − (count) ([11]; 3 mg (Table 7: 3 mg/kg s.c.)): 1 | Percentage of opacity (%) ([11]; 10 mg (Table 7: 10 mg/kg s.c.)): 75.0% | Percentage of severe opacity (%) ([11]; 10 mg (Table 7: 10 mg/kg s.c.)): 0% | Turbidity degree ++++ (count) ([11]; 10 mg (Table 7: 10 mg/kg s.c.)): 0 | Turbidity degree +++ (count) ([11]; 10 mg (Table 7: 10 mg/kg s.c.)): 0 | Turbidity degree ++ (count) ([11]; 10 mg (Table 7: 10 mg/kg s.c.)): 1 | Turbidity degree + (count) ([11]; 10 mg (Table 7: 10 mg/kg s.c.)): 2 | Turbidity degree − (count) ([11]; 10 mg (Table 7: 10 mg/kg s.c.)): 1
